Tests used:
[1] = target: T1, recombinant human mGluR4a receptors (Homo sapiens, UniProt Q14833); test: mGluR4 assay on HEK-expressing human mGluR4 (fluorescent cell based Ca2+ mobilization assay, FLIPR); settings: HEK-293 cells expressing hmGluR4; enhancement of EC25 glutamate response; mean of at least three independent experiments in duplicate; read-out: Ca^2+ Flux (mean EC50)
T1 construct: expressed in transfected cells
Excerpt: mGluR4 Assay on HEK-Expressing Human mGluR4 The compounds of the present invention are positive allosteric modulators of mGluR4 receptor. Their activity was examined on recombinant human mGluR4a receptors by detecting changes in intracellular Ca^2+ concentration, using the fluorescent Ca^2+-sensitive dye Fluo-4-(AM) and a Fluorometric Imaging Plate Reader (FLIPR, Molecular Devices, Sunnyvale, Calif.) The cDNA encoding the human metabotropic glutamate receptor (hmGluR4), (accession number NM_000841.1, NCBI Nucleotide database browser), was subcloned into an expression vector containing also the hygromycin resistance gene. In parallel, the cDNA encoding a G protein allowing redirection of the activation signal to intracellular calcium flux was subcloned into a different expression vector containing also the puromycin resistance gene. Transfection of both these vectors into HEK293 cells with PolyFect reagent (Qiagen) according to supplier's protocol, and hygromycin and puromycin treatment allowed selection of antibiotic resistant cells which had integrated stably one or more copies of the plasmids. Positive cellular clones expressing hmGluR4 were identified in a functional assay measuring changes in calcium fluxes in response to glutamate or selective known mGluR4 orthosteric agonists and antagonists. HEK-293 cells expressing hmGluR4 were maintained in media containing DMEM, dialyzed Fetal Calf Serum (10%), Glutamax™ (2 mM), Penicillin (100 units/mL), Streptomycin (100 μg/mL), Geneticin (100 μg/mL) and Hygromycin-B (40 μg/mL) and puromycin (1 μg/mL) at 37° C./5% CO2. Human mGluR4 HEK-293 cells were plated out 24 hours prior to FLIPR^384 assay in black-walled, clear-bottomed, poly-L-ornithine-coated 384-well plates at a density of 25,000 cells/well in a glutamine/glutamate free DMEM medium containing foetal bovine serum (10%), penicillin (100 units/mL) and streptomycin (100 μg/mL) at 37 C/5% CO2. On the day of the assay, the medium was aspirated and the cells were loaded with a 3 μM solution of Fluo-4-AM (LuBioScience, Lucerne, Switzerland) in 0.03% pluronic acid. After 1 hour at 37 C/5% CO2, the non incorporated dye was removed by washing cell plate with the assay buffer and the cells were left in the dark at room temperature for six hours before testing. All assays were performed in a pH 7.4 buffered-solution containing 20 mM HEPES, 143 mM NaCl, 6 mM KCl, 1 mM MgSO4, 1 mM CaCl2, 0.125 mM sulfapyrazone, 0.1% glucose. After 10 s of basal fluorescence recording, various concentrations of the compounds of the invention were added to the cells. Changes in fluorescence levels were first monitored for 180 s in order to detect any agonist activity of the compounds. Then the cells were stimulated by an EC25 glutamate concentration for an additional 110 s in order to measure enhancing activities of the compounds of the invention. EC25 glutamate concentration is the concentration giving 25% of the maximal glutamate response. The concentration-response curves of representative compounds of the present invention were generated using the Prism GraphPad software (Graph Pad Inc, San Diego, USA). The curves were fitted to a four-parameter logistic equation: (Y=Bottom+(Top−Bottom)/(1+10^((Log EC50−X)*Hill Slope) allowing the determination of EC50 values. The Table 5 below represents the mean EC50 obtained from at least three independent experiments of selected molecules performed in duplicate.

T1 sequence (Q14833 33-912): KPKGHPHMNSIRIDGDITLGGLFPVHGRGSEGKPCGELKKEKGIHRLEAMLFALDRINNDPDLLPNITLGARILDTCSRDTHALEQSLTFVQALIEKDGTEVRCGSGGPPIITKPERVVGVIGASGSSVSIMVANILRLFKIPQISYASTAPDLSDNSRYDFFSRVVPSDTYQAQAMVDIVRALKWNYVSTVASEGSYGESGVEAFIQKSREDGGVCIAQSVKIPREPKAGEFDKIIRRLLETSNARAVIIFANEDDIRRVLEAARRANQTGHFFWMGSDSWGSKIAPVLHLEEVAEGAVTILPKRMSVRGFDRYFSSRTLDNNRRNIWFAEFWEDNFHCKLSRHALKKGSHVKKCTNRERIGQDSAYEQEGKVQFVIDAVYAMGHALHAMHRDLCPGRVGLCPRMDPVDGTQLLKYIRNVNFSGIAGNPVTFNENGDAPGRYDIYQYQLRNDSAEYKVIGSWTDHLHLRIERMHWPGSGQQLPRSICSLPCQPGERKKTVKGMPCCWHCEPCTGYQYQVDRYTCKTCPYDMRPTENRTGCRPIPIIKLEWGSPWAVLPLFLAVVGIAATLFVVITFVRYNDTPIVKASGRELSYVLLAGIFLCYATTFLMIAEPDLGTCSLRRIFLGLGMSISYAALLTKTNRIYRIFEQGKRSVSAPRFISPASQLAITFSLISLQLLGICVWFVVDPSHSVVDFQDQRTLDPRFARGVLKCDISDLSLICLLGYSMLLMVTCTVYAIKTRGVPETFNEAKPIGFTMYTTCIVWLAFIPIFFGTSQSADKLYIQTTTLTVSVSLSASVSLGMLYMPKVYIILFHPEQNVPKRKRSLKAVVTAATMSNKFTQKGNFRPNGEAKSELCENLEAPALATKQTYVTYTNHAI

Row | SMILES | melting point | EC50 [1] [nM]
1 | Cc1n[nH]cc1-c1nsc(Nc2ccccn2)n1 [Compound 1-5, 3-(3-Methyl-1H-pyrazol-4-yl)-N-(pyridin-2-yl)-1,2,4-thiadiazol-5-amine] | > 280 °C | 1000 to 10000
2 | c1ccc(Nc2nc(-c3cn[nH]c3)ns2)cc1 [Compound 1-6, N-Phenyl-3-(1H-pyrazol-4-yl)-1,2,4-thiadiazol-5-amine] | 192 °C | 1000 to 10000
3 | Cc1n[nH]cc1-c1csc(Nc2ccccc2)n1 [Compound 1-7, 4-(3-Methyl-1H-pyrazol-4-yl)-N-phenylthiazol-2-amine] | 200 to 202 °C | 1000 to 10000
4 | CCCc1n[nH]cc1-c1nsc(Nc2ccccc2)n1 [Compound 1-8, N-Phenyl-3-(3-propyl-1H-pyrazol-4-yl)-1,2,4-thiadiazol-5-amine] | 170 to 172 °C | 1000 to 10000
5 | CCCc1n[nH]cc1-c1nsc(Nc2ccccn2)n1 [Compound 1-9, 3-(3-Propyl-1H-pyrazol-4-yl)-N-(pyridin-2-yl)-1,2,4-thiadiazol-5-amine] | 248 to 250 °C | 1000 to 10000
6 | FC(F)(F)c1n[nH]cc1-c1nsc(Nc2ccccn2)n1 [Compound 1-10, N-(Pyridin-2-yl)-3-(3-(trifluoromethyl)-1H-pyrazol-4-yl)-1,2,4-thiadiazol-5-amine] | > 260 °C | 500 to 1000
7 | Cc1n[nH]cc1-c1csc(Nc2ccccn2)n1 [Compound 1-11, 4-(3-Methyl-1H-pyrazol-4-yl)-N-(pyridin-2-yl)thiazol-2-amine] | 255 to 257 °C | < 500
8 | FC(F)(F)c1n[nH]cc1-c1csc(Nc2ccccn2)n1 [Compound 1-12, N-(Pyridin-2-yl)-4-(3-(trifluoromethyl)-1H-pyrazol-4-yl)thiazol-2-amine] | 250 °C | 500 to 1000
9 | CC(C)c1n[nH]cc1-c1csc(Nc2ccccn2)n1 [Compound 1-13, 4-(3-Isopropyl-1H-pyrazol-4-yl)-N-(pyridin-2-yl)thiazol-2-amine] | 195 °C | 1000 to 10000
10 | Cc1sc(Nc2ccccn2)nc1-c1cn[nH]c1 [Compound 1-16, 5-Methyl-4-(1H-pyrazol-4-yl)-N-(pyridin-2-yl)thiazol-2-amine] | 291 to 294 °C | < 500
11 | Cc1cccc(Nc2nc(-c3cn[nH]c3)c(C)s2)n1 [Compound 1-18, 5-Methyl-N-(6-methylpyridin-2-yl)-4-(1H-pyrazol-4-yl)thiazol-2-amine] | 306 °C | < 500
12 | c1ccc(Nc2nc(-c3cn[nH]c3)cs2)nc1 [Compound 1-25, N-(4-(1H-pyrazol-4-yl)thiazol-2-yl)pyridin-2-amine] | 261 to 262 °C | < 500
13 | Cc1sc(Nc2ccccn2)nc1-c1cnn(C(N)=O)c1 [Compound 1-27, 4-(5-Methyl-2-(pyridin-2-ylamino)thiazol-4-yl)-1H-pyrazole-1-carboxamide] | 294 to 296 °C | < 500
14 | Cc1sc(Nc2cccc(Cl)n2)nc1-c1cn[nH]c1 [Compound 1-31, N-(6-Chloropyridin-2-yl)-5-methyl-4-(1H-pyrazol-4-yl)thiazol-2-amine] | 290 °C (dec.) | < 500
15 | Clc1sc(Nc2ccccn2)nc1-c1cn[nH]c1 [Compound 1-32, 5-Chloro-4-(1H-pyrazol-4-yl)-N-(pyridin-2-yl)thiazol-2-amine] | 282 to 285 °C | < 500
16 | Cc1sc(Nc2cccc(F)n2)nc1-c1cn[nH]c1 [Compound 1-33, N-(6-Fluoropyridin-2-yl)-5-methyl-4-(1H-pyrazol-4-yl)thiazol-2-amine] | 290 °C (dec.) | < 500
17 | Cc1n[nH]cc1-c1nsc(Nc2cccc(F)n2)n1 [Compound 1-43, N-(6-Fluoropyridin-2-yl)-3-(3-methyl-1H-pyrazol-4-yl)-1,2,4-thiadiazol-5-amine] | > 300 °C | < 500
18 | Cc1sc(Nc2ncccc2F)nc1-c1cn[nH]c1 [Compound 1-46, N-(3-Fluoropyridin-2-yl)-5-methyl-4-(1H-pyrazol-4-yl)thiazol-2-amine] | 300 °C (dec.) | < 500
19 | N#Cc1sc(Nc2ccccn2)nc1-c1cn[nH]c1 [Compound 1-47, 4-(1H-Pyrazol-4-yl)-2-(pyridin-2-ylamino)thiazol-5-carbonitrile] | 250 °C (dec.) | < 500
20 | Clc1cccc(Nc2nc(-c3cn[nH]c3)cs2)n1 [Compound 1-49, N-(6-Chloropyridin-2-yl)-4-(1H-pyrazol-4-yl)thiazol-2-amine] | 295 °C (dec.) | < 500
21 | Fc1cccc(Nc2nc(-c3cn[nH]c3)cs2)n1 [Compound 1-51, N-(6-Fluoropyridin-2-yl)-4-(1H-pyrazol-4-yl)thiazol-2-amine] | 281 to 285 °C | < 500
22 | Cc1cccc(Nc2nc(-c3cn[nH]c3)cs2)n1 [Compound 1-53, N-(6-Methylpyridin-2-yl)-4-(1H-pyrazol-4-yl)thiazol-2-amine] | 259 to 260 °C | < 500
23 | FC(F)(F)c1sc(Nc2ccccn2)nc1-c1cn[nH]c1 [Compound 1-54, 4-(1H-Pyrazol-4-yl)-N-(pyridin-2-yl)-5-(trifluoromethyl)thiazol-2-amine] | 250 °C (dec.) | 500 to 1000
24 | c1ccc(Nc2nc(-c3c[nH]nc3C3CC3)cs2)nc1 [Compound 1-60, 4-(3-Cyclopropyl-1H-pyrazol-4-yl)-N-(pyridin-2-yl)thiazol-2-amine] | 211 to 213 °C | < 500
25 | CCc1n[nH]cc1-c1csc(Nc2ccccn2)n1 [Compound 1-61, 4-(3-Ethyl-1H-pyrazol-4-yl)-N-(pyridin-2-yl)thiazol-2-amine] | 196 to 198 °C | < 500
